Laboratory results reported in PMC6153434, “Bystander Effects of Hypoxia-Activated Prodrugs: Agent-Based Modeling Using Three Dimensional Cell Cultures” (Frontiers in Pharmacology, 2018).

Columns and labels:
[1] = ref Hicks et al., 2010; Wang et al., 2014; Gu et al., 2017; cited from earlier work
[2] = pH 7.4
[3] = Stability in culture medium at 37°C by LC-MS/MS
POR-R cells = assay: LC-MS/MS assay for PR104A metabolites in anoxic cultures; type: in vitro ADME; conditions: 100 μM PR104A, 3 h, anoxia
Protocol: POR-R cells (10^6 cells/0.5 mL) in 24-well plates were exposed to 100 μM PR104A under anoxia for 3 h. Plates were centrifuged (216 × g, 4°C, 8 min) extracellular medium was removed and proteins precipitated with an equal volume of ice-cold methanol. Cold methanol (100 μL) was then added to each well to extract intracellular PR104A and metabolites. Samples were stored at -80°C, then thawed, centrifuged (13,000 × g, 5 min, 4°C), diluted with two volumes of ammonium formate buffer (4.5 mM, pH 4.5) and analyzed with an Agilent LC-MS/MS (model 6460) using an electrospray ionization/atmospheric pressure chemical ionization multimode source and photodiode array absorbance detector as described previously ([Patel et al., 2007]).

HCT116 and HCT116/POR#6 = conditions: published value; PR104H+M model; ref Foehrenbacher et al., 2013; cited from earlier work
[4] = system: high-POR 'activator' HCT116 cell lines (POR-R, POR-G); type: cell-based
[5] = system: POR-null 'target' HCT116 cells in spheroids; type: cell-based
[6] = system: POR-R activators and PORko-G targets (HCT116); assay: SN30000 'no bystander effect' agent-based model parameters; conditions: ABM parameter
[7] = system: anoxic MCLs of POR-R activators and PORko-G targets; conditions: 100 μM in donor; differing proportions of POR-R activators
HCT116 cells = conditions: cited from earlier work
[8] = published value, ref Hicks et al., 2010
[9] = published value, ref Mao et al., 2018

Structure (SMILES) | Measured logD7.4 [2] | other results
[O-][n+]1nc(CCCN2CCOCC2)nc2cc3c(cc21)CCC3 [1-oxide] | – | cytotoxicity of downstream metabolites of SN30000 [1]: non-cytotoxic
O=C(NCCCO)c1cc(N(CCBr)CCBr)c([N+](=O)[O-])cc1[N+](=O)[O-] [I Br Br (CH2)3OH] | 1.81 | –
O=C(NCCO)c1cc(N(CCBr)CCBr)c([N+](=O)[O-])cc1[N+](=O)[O-] [I Br Br CH2CH2OH] | 1.69 | –
O=C(NCC(O)CO)c1cc(N(CCBr)CCBr)c([N+](=O)[O-])cc1[N+](=O)[O-] (stereo not shown) [I Br Br CH2CHOHCH2OH] | 1.25 | –
NC(=O)c1cc(N(CCBr)CCBr)c([N+](=O)[O-])cc1[N+](=O)[O-] [I Br Br H] | 1.97 | –
CS(=O)(=O)OCCN(CCBr)c1cc(C(=O)NCCO)c([N+](=O)[O-])cc1[N+](=O)[O-] [I Br OSO2CH3 CH2CH2OH] | 0.461 | –
CS(=O)(=O)OCCN(CCBr)c1cc(C(=O)NCC(O)CO)c([N+](=O)[O-])cc1[N+](=O)[O-] (stereo not shown) [I Br OSO2CH3 CH2CHOHCH2OH] | -0.0453 | –
CS(=O)(=O)OCCN(CCBr)c1cc(C(N)=O)c([N+](=O)[O-])cc1[N+](=O)[O-] [I Br OSO2CH3 H] | 0.493 | –
NC(=O)c1cc(N(CCCl)CCBr)c([N+](=O)[O-])cc1[N+](=O)[O-] [I Cl Br H] | 1.61 | –
O=C(NCCCO)c1cc(N(CCCl)CCCl)c([N+](=O)[O-])cc1[N+](=O)[O-] [I Cl Cl (CH2)3OH] | 1.49 | –
O=C(NCCN1CCOCC1)c1cc(N(CCCl)CCCl)c([N+](=O)[O-])cc1[N+](=O)[O-] [I Cl Cl CH2CH2-Nmorp] | 1.6 | –
O=C(NCCO)c1cc(N(CCCl)CCCl)c([N+](=O)[O-])cc1[N+](=O)[O-] [I Cl Cl CH2CH2OH] | 1.315 | –
O=C(NCC(O)CO)c1cc(N(CCCl)CCCl)c([N+](=O)[O-])cc1[N+](=O)[O-] (stereo not shown) [I Cl Cl CH2CHOHCH2OH] | 0.93 | –
NC(=O)c1cc(N(CCCl)CCCl)c([N+](=O)[O-])cc1[N+](=O)[O-] [I Cl Cl H] | 1.515 | –
O=C(NO)c1cc(N(CCCl)CCCl)c([N+](=O)[O-])cc1[N+](=O)[O-] [I Cl Cl OH] | 1.22 | –
CS(=O)(=O)OCCN(CCCl)c1cc(C(N)=O)c([N+](=O)[O-])cc1[N+](=O)[O-] [I Cl OSO2CH3 H] | 0.425 | –
O=C(NCC(O)CO)c1cc(N(CCI)CCI)c([N+](=O)[O-])cc1[N+](=O)[O-] (stereo not shown) [I Iodo Iodo CH2CHOHCH2OH] | 1.79 | –
NC(=O)c1cc(N(CCI)CCI)c([N+](=O)[O-])cc1[N+](=O)[O-] [I Iodo Iodo H] | 2.408 | –
CS(=O)(=O)OCCN(CCI)c1cc(C(N)=O)c([N+](=O)[O-])cc1[N+](=O)[O-] [I Iodo OSO2CH3 H] | 0.743 | –
CS(=O)(=O)OCCN(CCOS(C)(=O)=O)c1cc(C(N)=O)c([N+](=O)[O-])cc1[N+](=O)[O-] [I OSO2CH3 OSO2CH3 H] | -0.701 | –
NC(=O)c1cc(N(CCOS(N)(=O)=O)CCOS(N)(=O)=O)c([N+](=O)[O-])cc1[N+](=O)[O-] [I OSO2NH2 OSO2NH2 H] | -0.95 | –
CS(=O)(=O)c1cc([N+](=O)[O-])c(C(N)=O)cc1N(CCBr)CCBr [II Br Br H] | 1.18 | –

Structure (SMILES) | Measured logD7.4 [2] | other results
NC(=O)c1cc(N(CCO)CCO)c([N+](=O)[O-])cc1N [III OH OH H] | -0.445 | –
O=C(NCCO)c1cc([N+](=O)[O-])cc([N+](=O)[O-])c1N(CCBr)CCBr [IV Br Br CH2CH2OH] | 2.33 | –
O=C(NCC(O)CO)c1cc([N+](=O)[O-])cc([N+](=O)[O-])c1N(CCBr)CCBr (stereo not shown) [IV Br Br CH2CHOHCH2OH] | 1.83 | –
NC(=O)c1cc([N+](=O)[O-])cc([N+](=O)[O-])c1N(CCBr)CCBr [IV Br Br H] | 2.63 | –
CS(=O)(=O)OCCN(CCBr)c1c(C(=O)NCCO)cc([N+](=O)[O-])cc1[N+](=O)[O-] [IV Br OSO2CH3 CH2CH2OH] | 1.01 | –
CS(=O)(=O)OCCN(CCBr)c1c(C(=O)NCC(O)CO)cc([N+](=O)[O-])cc1[N+](=O)[O-] (stereo not shown) [IV Br OSO2CH3 CH2CHOHCH2OH] | 0.589 | –
CS(=O)(=O)OCCN(CCBr)c1c(C(N)=O)cc([N+](=O)[O-])cc1[N+](=O)[O-] [IV Br OSO2CH3 H] | 1.23 | –
O=C(NCCCO)c1cc([N+](=O)[O-])cc([N+](=O)[O-])c1N(CCCl)CCCl [IV Cl Cl (CH2)3OH] | 2 | –
O=C(NCCO)c1cc([N+](=O)[O-])cc([N+](=O)[O-])c1N(CCCl)CCCl [IV Cl Cl CH2CH2OH] | 1.92 | –
CS(=O)(=O)OCCN(CCCl)c1c(C(N)=O)cc([N+](=O)[O-])cc1[N+](=O)[O-] [IV Cl OSO2CH3 H] | 1.02 | –
NC(=O)c1cc([N+](=O)[O-])cc([N+](=O)[O-])c1N(CCI)CCI [IV Iodo Iodo H] | 3.08 | –
O=C(NCCO)c1cc(NO)cc([N+](=O)[O-])c1N(CCCl)CCCl [Metabolite A, 2-(Bis(2-chloroethyl)amino)-5-(hydroxyamino)-N-(2-hydroxyethyl)-3-nitrobenzamide] | – | cytotoxic potency relative to PR104H (SiHa cells): lower cytotoxic potency; half-life in culture medium relative to PR104H [3]: fourfold longer half-life
Nc1cc(C(=O)NCCO)c(N(CCCl)CCCl)c([N+](=O)[O-])c1 [Metabolite B] | – | extracellular concentration relative to PR104H (POR-R cells; P = 0.02): fivefold higher
CS(=O)(=O)OCCN(CCBr)c1c(C(=O)NCCO)cc(NO)cc1[N+](=O)[O-] [PR104H] | – | intracellular metabolite profile (POR-R cells): major intracellular metabolite; Kc, intrinsic cytotoxic potency (HCT116 and HCT116/POR#6): 92 M⁻¹ s⁻¹
[O-][n+]1nc(CCCN2CCOCC2)[n+]([O-])c2cc3c(cc21)CCC3 [SN30000] | – | sensitivity of activator cell lines (clonogenic survival) [4]: marked increases in the sensitivity; bystander effect [5]: trivially small; killing of target cells as proportion of activators increases [5]: increasing proportions of POR-R activators reduced killing of PORko-G targets; Half-life, non-enzymatic loss in culture medium ([6]; 37 °C): 1000 days; F2, proportion of O2-dependent metabolism of the drug [6]: 1; Hill parameter n [6]: 1.7; KO2, O2 concentration for half-maximum prodrug activation [6]: 1.14; Kc, intrinsic cytotoxic potency of the prodrug [6]: 1800 M⁻¹ s⁻¹; Kin, rate constant for transfer from the extracellular to the intracellular compartment [6]: 10 min⁻¹; Kout, rate constant for transfer from the intracellular to the extracellular compartment [6]: 10 min⁻¹; Activator Kmet,0, rate constant for the maximum rate of metabolism in activator cells under anoxia ([6]; POR-R activators, adjusted to optimize monolayer fits): 14 min⁻¹; Target Kmet,0, rate constant for the maximum rate of metabolism in target cells under anoxia ([6]; PORko-G targets, adjusted to optimize monolayer fits): 1.3 min⁻¹; net diffusion through anoxic MCLs [7]: lowered by increasing proportions of activator cells; Half-life, non-enzymatic loss in culture medium (HCT116 cells; 37 °C, published value, ref Mao et al., 2018): 1000 days; Hill parameter n (HCT116 cells; oxygen dependence of metabolism, published value, ref Mao et al., 2018): 1.7; Kmet,0, rate constant for the maximum rate of metabolism under anoxia (HCT116 cells; parental HCT116 cells (listed as Target Kmet,0 published value), ref Mao et al., 2018): 1.88 min⁻¹; F2, proportion of O2-dependent metabolism of the drug (HCT116 cells; [8]): 1; KO2, O2 concentration for half-maximum prodrug activation (HCT116 cells; [8]): 1.14; Kin, rate constant for transfer from the extracellular to the intracellular compartment (HCT116 cells; [9]): 10 min⁻¹; Kout, rate constant for transfer from the intracellular to the extracellular compartment (HCT116 cells; [9]): 10 min⁻¹
NC(=O)c1cc(NO)cc([N+](=O)[O-])c1N(CCCl)CCCl [V Cl Cl H] | 2.19 | –
NC(=O)c1cc(NO)cc([N+](=O)[O-])c1N(CCO)CCO [V OH OH H] | -1.36 | –
O=C(NCC(O)CO)c1c([N+](=O)[O-])ccc(N(CCBr)CCBr)c1[N+](=O)[O-] (stereo not shown) [VI Br Br CH2CHOHCH2OH] | 1.04 | –
CS(=O)(=O)OCCN(CCBr)c1ccc([N+](=O)[O-])c(C(=O)NCC(O)CO)c1[N+](=O)[O-] (stereo not shown) [VI Br OSO2CH3 CH2CHOHCH2OH] | -0.373 | –
NC(=O)c1c([N+](=O)[O-])ccc(N(CCCl)CCCl)c1[N+](=O)[O-] [VI Cl Cl H] | 1.41 | –
c1c2c(cc3nc(CCCN4CCOCC4)nnc13)CCC2 [nor-oxide] | – | cytotoxicity of downstream metabolites of SN30000 [1]: non-cytotoxic
